Measured values as given in ChEMBL document CHEMBL3868595, “Plazomicin is effective in a non-human primate pneumonic plague model” (Bioorg Med Chem, 2016).

How the values were obtained:
Yersinia pestis [1] = assay: Antibacterial activity against Yersinia pestis Colorado 92 infected in African green monkey B6436 model assessed as bacterial burden in blood at 25 mg/kg, iv administered within 6 hrs post onset of sustained fever as 30 mins infusion for 5 days (reference value: 1.2 10^7CFU/ml); format: functional, organism-based; conditions: CO92
African green monkey [2] = assay: Toxicity in African green monkey B5994 model infected with Yersinia pestis Colorado 92 assessed as serum gamma glutamyl-transferase level at 25 mg/kg, iv administered within 6 hrs post onset of sustained fever as 30 mins infusion for 10 days (reference value: 35 IU/L); format: organism-based; conditions: chlorocebus sabaeus, in vivo
African green monkey [3] = assay: Toxicity in African green monkey B6140 model infected with Yersinia pestis Colorado 92 assessed as serum gamma glutamyl-transferase level at 25 mg/kg, iv administered within 6 hrs post onset of sustained fever as 30 mins infusion for 10 days (reference value: 55 IU/L); format: organism-based; conditions: chlorocebus sabaeus, in vivo
Yersinia pestis [4] = assay: Antibacterial activity against Yersinia pestis Colorado 92 infected in African green monkey B6783 model assessed as bacterial burden in spleen at 12.5 mg/kg, iv administered within 6 hrs post onset of sustained fever as 30 mins infusion for 5 days (reference value: 1.6 10^9CFU/g); format: functional, CO92
Yersinia pestis [5] = assay: Antibacterial activity against Yersinia pestis Colorado 92 infected in African green monkey B6988 model assessed as bacterial burden in brain at 6.25 mg/kg, iv administered within 6 hrs post onset of sustained fever as 30 mins infusion for 5 days (reference value: 1.9 10^6CFU/g); format: functional, CO92
African green monkey [6] = assay: Toxicity in African green monkey 7929 model infected with Yersinia pestis Colorado 92 assessed as serum gamma glutamyl-transferase level at 25 mg/kg, iv administered within 6 hrs post onset of sustained fever as 30 mins infusion for 10 days (reference value: 44 IU/L); format: organism-based; conditions: chlorocebus sabaeus, in vivo
Yersinia pestis [7] = assay: Antibacterial activity against Yersinia pestis Colorado 92 infected in African green monkey B6873 model assessed as bacterial burden in brain at 12.5 mg/kg, iv administered within 6 hrs post onset of sustained fever as 30 mins infusion for 5 days (reference value: 1.9 10^6CFU/g); format: functional, CO92
[8] = Clearance in African green monkey blood at 25 mg/kg administered as iv infusion twice daily for 7 consecutive days measured on day 1 by LC-MS/MS analysis; format: ADME, organism-based; conditions: chlorocebus aethiops
[9] = AUC (0 to 24 hrs) in African green monkey blood at 35 mg/kg administered as iv infusion twice daily for 7 consecutive days measured on day 7 by LC-MS/MS analysis; format: ADME, organism-based; design: time < 24 hr, dose 35 mg/kg, route intravenous; conditions: chlorocebus aethiops
Yersinia pestis [10] = assay: Antibacterial activity against Yersinia pestis Colorado 92 infected in African green monkey B6672 model assessed as bacterial burden in liver at 12.5 mg/kg, iv administered within 6 hrs post onset of sustained fever as 30 mins infusion for 5 days (reference value: 5.2 10^8CFU/g); format: functional, CO92
Yersinia pestis [11] = assay: Antibacterial activity against Yersinia pestis Colorado 92 infected in African green monkey B6127 model assessed as bacterial burden in brain at 25 mg/kg, iv administered within 6 hrs post onset of sustained fever as 30 mins infusion for 10 days (reference value: 1.9 10^6CFU/g); format: functional, CO92
African green monkey [12] = assay: Toxicity in African green monkey 7643 model infected with Yersinia pestis Colorado 92 assessed as blood urea nitrogen level at 25 mg/kg, iv administered within 6 hrs post onset of sustained fever as 30 mins infusion for 10 days (reference value: 16 mg/dl); format: organism-based; conditions: chlorocebus sabaeus, in vivo
[13] = Volume of distribution at steady state in African green monkey blood at 35 mg/kg administered as iv infusion twice daily for 7 consecutive days measured on day 1 by LC-MS/MS analysis; format: ADME, organism-based; conditions: chlorocebus aethiops, read-out: Vdss
[14] = Toxicity in African green monkey B6428 model infected with Yersinia pestis Colorado 92 assessed as total white blood cell count at 25 mg/kg, iv administered within 6 hrs post onset of sustained fever as 30 mins infusion for 10 days (reference value: 6.2 10^3/microL); format: organism-based; conditions: chlorocebus aethiops, in vivo
Yersinia pestis [15] = assay: Antibacterial activity against Yersinia pestis Colorado 92 infected in African green monkey B6889 model assessed as bacterial burden in heart at 6.25 mg/kg, iv administered within 6 hrs post onset of sustained fever as 30 mins infusion for 5 days (reference value: 2.6 10^7CFU/g); format: functional, CO92
Yersinia pestis [16] = assay: Antibacterial activity against Yersinia pestis Colorado 92 infected in African green monkey B6872 model assessed as bacterial burden in spleen at 25 mg/kg, iv administered within 6 hrs post onset of sustained fever as 30 mins infusion for 5 days (reference value: 1.6 10^9CFU/g); format: functional, organism-based; conditions: CO92
Yersinia pestis [17] = assay: Antibacterial activity against Yersinia pestis Colorado 92 infected in African green monkey B6889 model assessed as bacterial burden in kidney at 6.25 mg/kg, iv administered within 6 hrs post onset of sustained fever as 30 mins infusion for 5 days (reference value: 7.1 10^7CFU/g); format: functional, CO92
African green monkey [18] = assay: Toxicity in African green monkey 7337 model infected with Yersinia pestis Colorado 92 assessed as serum creatinine level at 25 mg/kg, iv administered within 6 hrs post onset of sustained fever as 30 mins infusion for 10 days (reference value: 0.7 mg/dl); format: organism-based; conditions: chlorocebus sabaeus, in vivo
[19] = Toxicity in African green monkey 7929 model infected with Yersinia pestis Colorado 92 assessed as total white blood cell count at 25 mg/kg, iv administered within 6 hrs post onset of sustained fever as 30 mins infusion for 10 days (reference value: 10.9 10^3/microL); format: organism-based; conditions: chlorocebus aethiops, in vivo
[20] = Toxicity in African green monkey B6291 model infected with Yersinia pestis Colorado 92 assessed as total white blood cell count at 25 mg/kg, iv administered within 6 hrs post onset of sustained fever as 30 mins infusion for 10 days (reference value: 12 10^3/microL); format: organism-based; conditions: chlorocebus aethiops, in vivo
African green monkey [21] = assay: Toxicity in African green monkey B6127 model infected with Yersinia pestis Colorado 92 assessed as tubule damage at 25 mg/kg, iv administered within 6 hrs post onset of sustained fever as 30 mins infusion for 10 days by hematoxylin staining based assay; format: organism-based; conditions: chlorocebus sabaeus, in vivo
African green monkey [22] = assay: Toxicity in African green monkey 7653 model infected with Yersinia pestis Colorado 92 assessed as serum alanine aminotransferase level at 25 mg/kg, iv administered within 6 hrs post onset of sustained fever as 30 mins infusion for 10 days (reference value: 50 IU/L); format: organism-based; conditions: chlorocebus sabaeus, in vivo
African green monkey [23] = assay: Toxicity in African green monkey B6428 model infected with Yersinia pestis Colorado 92 assessed as serum alanine aminotransferase level at 25 mg/kg, iv administered within 6 hrs post onset of sustained fever as 30 mins infusion for 10 days (reference value: 83 IU/L); format: organism-based; conditions: chlorocebus sabaeus, in vivo
Yersinia pestis [24] = assay: Antibacterial activity against Yersinia pestis Colorado 92 infected in African green monkey 8047 model assessed as bacterial burden in heart at 6.25 mg/kg, iv administered within 6 hrs post onset of sustained fever as 30 mins infusion for 10 days (reference value: 2.6 10^7CFU/g); format: functional, CO92
[25] = Cmax in African green monkey blood at 35 mg/kg administered as iv infusion twice daily for 7 consecutive days measured on day 7 by LC-MS/MS analysis; format: ADME, organism-based; design: dose 35 mg/kg, route intravenous; conditions: chlorocebus aethiops
African green monkey [26] = assay: Toxicity in African green monkey 7653 model infected with Yersinia pestis Colorado 92 assessed as serum lactate dehydrogenase level at 25 mg/kg, iv administered within 6 hrs post onset of sustained fever as 30 mins infusion for 10 days (reference value: 319 IU/L); format: organism-based; conditions: chlorocebus sabaeus, in vivo

## CN[C@@H]1[C@@H](O)[C@@H](O[C@@H]2[C@@H](O)[C@H](O[C@H]3OC(CNCCO)=CC[C@H]3N)[C@@H](N)C[C@H]2NC(=O)[C@@H](O)CCN)OC[C@]1(C)O [PLAZOMICIN]
Yersinia pestis [1]
  Activity: Below limit of detection
African green monkey [2]
  Activity: 38 IU/L
African green monkey [3]
  Activity: 39 IU/L
Yersinia pestis [4]
  Activity: 10 CFU/g
Yersinia pestis [5]
  Activity: 11 CFU/g
African green monkey [6]
  Activity: 16 IU/L
Yersinia pestis [7]
  Activity: 44 CFU/g
[8]
  clearance: 2.17 mL/min/kg
[9]
  AUC at 24 h: 319 µg·h/mL
Yersinia pestis [10]
  Activity: 76 CFU/g
Yersinia pestis [11]
  Activity: 39 CFU/g
African green monkey [12]
  Activity: 19 mg/dL
[13]
  Vd: 0.26 L/kg
[14]
  Activity: 6 ×10³ /uL
Yersinia pestis [15]
  Activity: 1 ×10⁶ CFU/g
Yersinia pestis [16]
  Activity: Below limit of detection
Yersinia pestis [17]
  Activity: 1.1 ×10⁶ CFU/g
African green monkey [18]
  Activity: 0.5 mg/dL
[19]
  Activity: 8.5 ×10³ /uL
[20]
  Activity: 5.9 ×10³ /uL
African green monkey [21]
  Activity: Toxic
African green monkey [22]
  Activity: 48 IU/L
African green monkey [23]
  Activity: 60 IU/L
Yersinia pestis [24]
  Activity: 2 ×10⁷ CFU/g
[25]
  Cmax: 185 µg/mL
African green monkey [26]
  Activity: 426 IU/L
